# Results: the supplement of paper PMC10307832
# Legend:
# Experiment in all cases: relative viability (nuclei count vs DMSO), 5 days (fraction); higher = more cells survive
# [1] = tested on: NCI-H358
# How it was run: (§1)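 Lung cancer cell lines in 1536-well plates got either a single drug or a fixed anchor-drug dose together with five library-drug doses (not always all listed) in √10 steps, by pin tool, on the day after seeding. Nuclei were counted after 5 days, and relative viability is the treated-to-vehicle ratio of nuclei counts. Values are medians of duplicate plates.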
# [2] = tested on: NCI-H1975
# How it was run: as §1
# [3] = tested on: H3255
# How it was run: as §1
# [4] = tested on: ABC-1
# How it was run: as §1
# [5] = tested on: NCI-H727
# How it was run: as §1
# [6] = tested on: NCI-H1437
# How it was run: as §1
# [7] = tested on: EKVX
# How it was run: as §1
# [8] = tested on: HCC-44
# How it was run: as §1
# [9] = tested on: COR-L 105
# How it was run: as §1
# [10] = tested on: NCI-H1792
# How it was run: as §1
# [11] = tested on: LCLC-103H
# How it was run: as §1
# [12] = tested on: NCI-H1651
# How it was run: as §1
# [13] = tested on: EPLC-272H
# How it was run: as §1
# [14] = tested on: NCI-H661
# How it was run: as §1
# [15] = tested on: HCC-15
# How it was run: as §1
# [16] = tested on: COR-L23
# How it was run: as §1
# [17] = tested on: HCC-827
# How it was run: as §1
# [18] = tested on: NCI-H1650
# How it was run: as §1
# [19] = tested on: NCI-H647
# How it was run: as §1
# [20] = tested on: UMC-11
# How it was run: as §1
# [21] = tested on: NCI-H2087
# How it was run: as §1
# [22] = tested on: 201T
# How it was run: as §1
# [23] = tested on: NCI-H520
# How it was run: as §1
smiles,measurement,setting,value
Cc1cnc(-c2cnc(NCCNc3ccc(C#N)cn3)nc2-c2ccc(Cl)cc2Cl)[nH]1 + CCNC(=O)c1noc(-c2cc(C(C)C)c(O)cc2O)c1-c1ccc(CN2CCOCC2)cc1 [Luminespib] (partner 0.01 µM),relative viability,[1]; first compound 0.08 µM,0.24
same,relative viability,[1]; first compound 0.253 µM,0.317
same,relative viability,[1]; first compound 0.8 µM,0.283
same,relative viability,[1]; first compound 2.53 µM,0.0322
same,relative viability,[2]; first compound 0.08 µM,0.21
same,relative viability,[2]; first compound 0.253 µM,0.252
same,relative viability,[2]; first compound 0.8 µM,0.191
same,relative viability,[2]; first compound 2.53 µM,0.189
same,relative viability,[3]; first compound 0.08 µM,0.96
same,relative viability,[3]; first compound 0.253 µM,0.933
same,relative viability,[3]; first compound 0.8 µM,0.977
same,relative viability,[3]; first compound 2.53 µM,0.835
same,relative viability,[4]; first compound 0.08 µM,0.591
same,relative viability,[4]; first compound 2.53 µM,0.82
same,relative viability,[5]; first compound 0.08 µM,0.272
same,relative viability,[5]; first compound 0.253 µM,0.345
same,relative viability,[5]; first compound 0.8 µM,0.362
same,relative viability,[5]; first compound 2.53 µM,0.337
same,relative viability,[6]; first compound 0.08 µM,1.06
same,relative viability,[6]; first compound 0.253 µM,1.06
same,relative viability,[6]; first compound 0.8 µM,1.14
same,relative viability,[6]; first compound 2.53 µM,1.14
same,relative viability,[7]; first compound 0.08 µM,0.85
same,relative viability,[7]; first compound 0.253 µM,0.824
same,relative viability,[7]; first compound 0.8 µM,0.911
same,relative viability,[7]; first compound 2.53 µM,0.88
same,relative viability,[8]; first compound 0.08 µM,1.21
same,relative viability,[8]; first compound 0.253 µM,0.968
same,relative viability,[8]; first compound 0.8 µM,1.14
same,relative viability,[8]; first compound 2.53 µM,1.24
same,relative viability,[9]; first compound 0.08 µM,0.846
same,relative viability,[9]; first compound 0.253 µM,0.648
same,relative viability,[9]; first compound 0.8 µM,0.696
same,relative viability,[9]; first compound 2.53 µM,0.654
same,relative viability,[10]; first compound 0.08 µM,0.668
same,relative viability,[10]; first compound 0.253 µM,0.432
same,relative viability,[10]; first compound 0.8 µM,0.493
same,relative viability,[10]; first compound 2.53 µM,0.392
same,relative viability,[11]; first compound 0.08 µM,1.08
same,relative viability,[11]; first compound 0.253 µM,0.865
same,relative viability,[11]; first compound 0.8 µM,0.933
same,relative viability,[11]; first compound 2.53 µM,0.826
same,relative viability,[12]; first compound 0.08 µM,1.03
same,relative viability,[12]; first compound 0.253 µM,0.864
same,relative viability,[12]; first compound 0.8 µM,0.762
same,relative viability,[12]; first compound 2.53 µM,0.883
same,relative viability,[13]; first compound 0.08 µM,0.308
same,relative viability,[13]; first compound 0.253 µM,0.313
same,relative viability,[13]; first compound 0.8 µM,0.209
same,relative viability,[13]; first compound 2.53 µM,0.192
same,relative viability,[14]; first compound 0.08 µM,0.889
same,relative viability,[14]; first compound 0.253 µM,0.881
same,relative viability,[14]; first compound 0.8 µM,0.904
same,relative viability,[14]; first compound 2.53 µM,0.829
same,relative viability,[15]; first compound 0.08 µM,0.303
same,relative viability,[15]; first compound 0.253 µM,0.217
same,relative viability,[15]; first compound 0.8 µM,0.318
same,relative viability,[15]; first compound 2.53 µM,0.398
same,relative viability,[16]; first compound 0.08 µM,0.784
same,relative viability,[16]; first compound 0.253 µM,0.578
same,relative viability,[16]; first compound 0.8 µM,0.659
same,relative viability,[16]; first compound 2.53 µM,0.621
same,relative viability,[17]; first compound 0.08 µM,0.719
same,relative viability,[17]; first compound 0.8 µM,0.752
same,relative viability,[17]; first compound 2.53 µM,0.564
same,relative viability,[18]; first compound 0.08 µM,0.195
same,relative viability,[18]; first compound 0.253 µM,0.207
same,relative viability,[18]; first compound 0.8 µM,0.164
same,relative viability,[18]; first compound 2.53 µM,0.193
same,relative viability,[19]; first compound 0.08 µM,0.144
same,relative viability,[19]; first compound 0.253 µM,0.131
same,relative viability,[19]; first compound 0.8 µM,0.135
same,relative viability,[19]; first compound 2.53 µM,0.166
same,relative viability,[20]; first compound 0.08 µM,1.02
same,relative viability,[20]; first compound 0.253 µM,0.934
same,relative viability,[20]; first compound 0.8 µM,1.03
same,relative viability,[20]; first compound 2.53 µM,0.995
same,relative viability,[21]; first compound 0.08 µM,0.128
same,relative viability,[21]; first compound 0.253 µM,0.128
same,relative viability,[21]; first compound 0.8 µM,0.208
same,relative viability,[21]; first compound 2.53 µM,0.175
same,relative viability,[22]; first compound 0.08 µM,1.11
same,relative viability,[22]; first compound 0.8 µM,1.06
same,relative viability,[22]; first compound 2.53 µM,1.01
same,relative viability,[23]; first compound 0.08 µM,0.257
same,relative viability,[23]; first compound 0.253 µM,0.203
same,relative viability,[23]; first compound 0.8 µM,0.227
same,relative viability,[23]; first compound 2.53 µM,0.208
